Laboratory results from US4749704A, “Cyclopenta[d]pyrimidine derivatives and use as antidepressants” (Sankyo Company Limited, priority 1985, dated 1988).

Columns and labels:
[1] = tested on: reserpine-induced ptosis; test: Test for Anti-reserpine Activity (inhibition of reserpine-induced ptosis); assay type: in vivo, male mice of the ddy strain; conditions: mice, oral, reserpine 2 mg/kg s.c., ptosis at 90, 120 and 180 min
Experimental: The test animals used were male mice of the ddy strain, each weighing 23-25 g. Each compound was tested on a group of five such mice. Each test compound was employed in the form of a solution or suspension in a physiological saline solution containing 0.3% w/v carboxymethylcellulose. The test employed was a partial modification of the method of Rubin et al. [J. Pharmacol. Exptl. Therap., 120, 125 (1957)].
2 mg/kg of reserpine were injected subcutaneously into each mouse and, immediately after the injection, the solution or suspension of the test compound was given orally in a dose of 5 mg/kg, 10 mg/kg or 25 mg/kg, as shown in the following Table. The animals were observed 90 minutes, 120 minutes and 180 minutes after administration to evaluate the inhibition of ptosis. At each observation, each mouse was assigned from 0 to 3 points corresponding to the degree of ptosis, as follows:
0 points: eyes completely open;
1 point: eyes about one third closed;
2 points: eyes about two thirds closed;
3 points: eyes completely closed.
For each mouse, the number of points from all three observations were added together, and the percentage inhibition of reserpine-induced ptosis (Ri) was calculated from the following formula:
Po =total number of points from three observations of an animal to which reserpine alone was administered; and
Pt =total number of points from three observations of an animal to which reserpine and the test compound were administered.

[2] = tested on: male rats of the F-344 strain; test: Acute Toxicity Test (single oral dose, 7 days observation); assay type: in vivo, rat (F-344 strain)
Experimental: The test animals used were male rats of the F-344 strain, each weighing from 150 to 170 g. One group of animals was fed normally, whilst another group was starved for 24 hours before administration of the test compound. To each animal was administered orally a single dose of the test compound in the amount shown in the following Table; the animals were then placed under observation for 7 days after administration. The results are reported in Table as "Mortality", where the numerator indicates the number of deaths in the observation period and the denominator indicates the number of animals tested with the particular test compound at the particular dose.

[3] = tested on: monoamine oxidase; test: Toxicity to the Liver (inhibition of monoamine oxidase in the rat liver); assay type: biochemical; conditions: estimated from inhibition of monoamine oxidase in the rat liver
[4] = background statement; cited from earlier work

Structure (SMILES)	Ri % (percentage inhibition of reserpine-induced ptosis) ([1]; dose 25 mg (25 mg/kg)) [%]	Mortality (deaths/animals tested) ([2]; fed rats, single oral dose 200 mg)	Mortality (deaths/animals tested) ([2]; starved (24 hours) rats, single oral dose 200 mg)	Ri % (percentage inhibition of reserpine-induced ptosis) ([1]; dose 5 mg (5 mg/kg)) [%]	Ri % (percentage inhibition of reserpine-induced ptosis) ([1]; dose 10 mg (10 mg/kg)) [%]	Mortality (deaths/animals tested) ([2]; fed rats, single oral dose 800 mg)	Mortality (deaths/animals tested) ([2]; starved (24 hours) rats, single oral dose 1500 mg)	toxicity to the liver relative to the prior art compound (Compound A) [3]	side-effect activities [4]
N#Cc1ccc(Nc2ncnc3c2CCC3)cc1 [Compound A, 4-(4-cyanoanilino)-6,7-dihydro-5H-cyclopenta[d]pyrimidine, reference compound]	85.0	1/5	3/5						
N#Cc1ccc(Nc2ncnc3c2CCC3O)cc1 (stereo not shown) [Compound No. 31, 4-(4-Cyanoanilino)-6,7-dihydro-7-hydroxy-5H-cyclopenta[d]pyrimidine]	85.7			50	71.4	0/5	0/5	about half that of the prior art compound	
CN(C)CCCN1c2ccccc2CCc2ccccc21 [Imipramine]									exhibits antihistaminic and anticholinergic activities
